Where “and” joins values, the source holds several entries; their conditions need not be identical. Equal values may be shown once. Entries after “also recorded” stand apart in the source; their conditions may differ. One block for each compound: values may come before it.
Experiments:
[1] = tested on: Male SD (Sprague-Dawley) rats; test: APAP-induced hepatotoxicity in rats: histological liver tissue sections (Total HAI-score); details: for liver tissue sections, hepatocyte morphology (in words): liver protection groups + APAP 1000 mg/kg, H&E stain 200×, FIG. 2
[2] = tested on: Male SD (Sprague-Dawley) rats; test: APAP-induced hepatotoxicity in rats: plasma AST and ALT activity; assay type: in vivo, rat; details: for improvement of APAP liver damage (AST, ALT, GSP and Total HAI-score, in words): combined with APAP 1000 mg/kg, versus APAP hepatotoxicity group
Protocol: After completion of the treatments, rats were sacrificed under ether anesthesia, and blood was collected from the tail artery of the rats and placed in a test tube containing EDTA. The plasma was centrifuged at 13,000 at 4° C. for 15 minutes and the isolated plasma was transferred to Eppendorf tubes in aliquots and stored at −80° C.
Liver damage is quantified by measuring plasma AST and ALT activity. AST and ALT are common indicators of hepatotoxicity and are measured by using the Synchron LXi 725 system (Beckman Instruments, U.S.).

[3] = biological target: Cytochrome P450 2E1 (CYP2E1) (Rattus norvegicus, UniProt P05182); test: In-vitro screening of CYP2E1 inhibitors in rat liver microsomes (chlorzoxazone 6-hydroxylation)
Cytochrome P450 2E1 (CYP2E1) (Rattus norvegicus, UniProt P05182), sequence (P05182 whole entry): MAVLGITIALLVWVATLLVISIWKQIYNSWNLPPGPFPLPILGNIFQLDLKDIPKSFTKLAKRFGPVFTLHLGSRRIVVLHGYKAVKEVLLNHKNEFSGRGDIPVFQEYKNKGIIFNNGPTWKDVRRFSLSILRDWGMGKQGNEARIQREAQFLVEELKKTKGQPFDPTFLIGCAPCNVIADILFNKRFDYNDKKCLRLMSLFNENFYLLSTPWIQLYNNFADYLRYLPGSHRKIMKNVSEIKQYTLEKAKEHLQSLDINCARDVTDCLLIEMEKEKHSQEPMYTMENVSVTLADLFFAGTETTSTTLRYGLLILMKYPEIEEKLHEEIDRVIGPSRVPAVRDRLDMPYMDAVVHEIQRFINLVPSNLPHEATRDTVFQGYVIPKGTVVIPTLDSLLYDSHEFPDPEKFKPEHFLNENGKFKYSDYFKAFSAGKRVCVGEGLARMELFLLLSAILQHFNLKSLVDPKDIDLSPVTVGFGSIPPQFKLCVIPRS
Description: (§1) This example is preparation of microsomes from rat and human liver for in vitro screening of CYP2E1 inhibitors. A total of 55 safe and edible excipients are included in the screening for cytochrome P450 2E1 (CYP2E1) inhibitors. […] After addition of the test sample, the amount of CYP2E1 metabolite standard 6-OH—CZX (6-Hydroxy-Chlorzoxazone) is used for calculation of the CYP 2E1 inhibition ratio of the test sample by using the amount of 6-OH—CZX of the control group as the baseline.
(§2) Transfer to and pre-incubate the reaction mixture in a water bath at 37° C. for 1 minute. […] Incubate the sample for 1 minute and add internal standard (5 ug/mL 4-hydroxy-tobutamide).

[4] = biological target: Cytochrome P450 2E1 (CYP2E1) (Homo sapiens, UniProt P05181); test: In-vitro screening of CYP2E1 inhibitors in human liver microsomes (chlorzoxazone 6-hydroxylation)
Cytochrome P450 2E1 (CYP2E1) (Homo sapiens, UniProt P05181), sequence (P05181 whole entry): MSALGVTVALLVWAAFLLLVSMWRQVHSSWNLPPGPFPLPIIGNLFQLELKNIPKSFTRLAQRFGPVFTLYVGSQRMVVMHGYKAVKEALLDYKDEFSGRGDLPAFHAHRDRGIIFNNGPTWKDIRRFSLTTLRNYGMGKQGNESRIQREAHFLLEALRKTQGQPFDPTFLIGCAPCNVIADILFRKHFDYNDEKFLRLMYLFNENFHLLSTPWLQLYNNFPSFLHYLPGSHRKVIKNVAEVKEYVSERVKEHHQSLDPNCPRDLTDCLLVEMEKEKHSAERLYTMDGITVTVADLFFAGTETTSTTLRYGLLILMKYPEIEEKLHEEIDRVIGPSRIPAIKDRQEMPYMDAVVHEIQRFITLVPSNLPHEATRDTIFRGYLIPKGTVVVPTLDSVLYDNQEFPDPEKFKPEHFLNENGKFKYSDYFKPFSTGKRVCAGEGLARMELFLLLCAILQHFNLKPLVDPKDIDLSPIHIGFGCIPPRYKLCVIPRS
Description: as §1, §2

[5] = tested on: Male SD (Sprague-Dawley) rats; test: APAP-induced hepatotoxicity in rats: galactose single point (GSP) residual liver function test; assay type: in vivo, rat; details: excipient 1.67 mg/kg + APAP 1000 mg/kg, single oral dose
Protocol: After the study was completed, all rats were subjected to GSP test. Rats were i.v. injected with 0.4 g/ml BW galactose solution 0.5 g/kg within 30 seconds and one blood sample was collected at 5, 10, 15, 30, 45 and 60 minutes post injection from the tail vein. Colorimetric galactose dehydrogenase is used to quantify the concentration of galactose and the test concentration ranges from 50 to 1,000 μg/ml. The within-day variation of each concentration is calculated using standard deviation and coefficient of variation (CV) and the maximum allowable coefficient of variation is 10% CV, whereas day-to-day variation is examined by comparing the slope and intercept of calibration curves. The GSP is the blood galactose concentration obtained 60 seconds after stopping the 30-second injection.

[6] = APAP alone, single oral dose 1000 mg/kg, plasma, mean ± SD, 1000 mg/kg
[7] = rat liver microsomes, test concentration 16.5 μM
[8] = rat liver microsomes, test concentration 33 μM
[9] = rat liver microsomes, test concentration 66 μM
[10] = rat, microsomes, 30 min, 0.024 %, pH 7.4
[11] = rat, microsomes, 30 min, 0.084 % (w/v), pH 7.4
[12] = rat, microsomes, 30 min, 0.167 % (w/v), pH 7.4
[13] = human liver microsomes, test concentration 16.5 μM
[14] = human liver microsomes, test concentration 33 μM
[15] = human liver microsomes, test concentration 66 μM
[16] = excipient 1.67 mg/kg + APAP 1000 mg/kg, single oral dose
[17] = rat, microsomes, 30 min, 16.5 μM, pH 7.4
[18] = rat, microsomes, 30 min, 33 μM, pH 7.4
[19] = rat, microsomes, 30 min, 66 μM, pH 7.4
[20] = human, microsomes, 30 min, 16.5 μM, pH 7.4
[21] = human, microsomes, 30 min, 33 μM, pH 7.4
[22] = human, microsomes, 30 min, 66 μM, pH 7.4

Compound: CC(=O)Nc1ccc(O)cc1 [APAP, N-acetyl-para-aminophenol, reference compound]
Total HAI-score ([1]; APAP alone, single oral dose 1000 mg/kg, mean ± SD): 4.9 ± 1.8
ALT [2, 6]: 368±71 IU/L
AST [2, 6]: 499±112 IU/L

Compound: O=C(O)CC(O)(CC(=O)O)C(=O)O [Citric acid]
CYP 2E1 inhibition ratio [4, 13]: 9.9 ± 3.1%
CYP 2E1 inhibition ratio [4, 14]: 15.5 ± 1.5%
CYP 2E1 inhibition ratio [4, 15]: 20.5 ± 1.8%
CYP 2E1 inhibition ratio [3, 7]: 7.5 ± 2.3%
CYP 2E1 inhibition ratio [3, 8]: 12.4 ± 2.2%
CYP 2E1 inhibition ratio [3, 9]: 27.6 ± 3.6%

Compound: O.O.O=P([O-])([O-])O.[Ca+2] [Dicalcium phosphate dihydrate]
GSP ([5]; phosphate dihydrate): 444 ± 60 mg/L
Total HAI-score [1, 16]: 3.1 ± 1.1
liver tissue sections, hepatocyte morphology (in words) ([1]; single oral dose): except for the dicalcium phosphate group
CYP 2E1 inhibition ratio [4, 13]: 31.2 ± 2.9%
CYP 2E1 inhibition ratio [4, 14]: 56.8 ± 2.2%
CYP 2E1 inhibition ratio [4, 15]: 60.1 ± 0.3%
CYP 2E1 inhibition ratio [3, 7]: 55.0 ± 4.6%
CYP 2E1 inhibition ratio [3, 8]: 62.0 ± 2.6%
CYP 2E1 inhibition ratio [3, 9]: 76.7 ± 0.8%
improvement of APAP liver damage (AST, ALT, GSP and Total HAI-score, in words) [2]: not as expected
ALT [2, 16]: 196 ± 65 IU/L
AST [2, 16]: 315 ± 42 IU/L

Compound: O.OC[C@H]1O[C@@H](O[C@H]2[C@H](O)[C@@H](O)C(O)O[C@@H]2CO)[C@H](O)[C@@H](O)[C@H]1O (stereo partly drawn) [Lactose monohydrate]
CYP 2E1 inhibition ratio [3, 17]: 3.9 ± 2.3%
CYP 2E1 inhibition ratio [3, 18]: 7.8 ± 2.2%
CYP 2E1 inhibition ratio [3, 19]: 8.7 ± 3.8%

Compound: OC[C@@H](O)[C@@H](O)[C@H](O)[C@H](O)CO [Mannitol]
GSP [5]: 253 ± 29 mg/L
Total HAI-score [1, 16]: 0.8 ± 0.3
liver tissue sections, hepatocyte morphology (in words) ([1]; single oral dose): more intact around the central vein and have a apparent nucleus with less vacuolization; also recorded: hepatocytes are relatively intact with visible nucleus and less vacuolization
CYP 2E1 inhibition ratio [4, 20]: 44.8 ± 1.8%
CYP 2E1 inhibition ratio [4, 21]: 51.2 ± 2.1%
CYP 2E1 inhibition ratio [4, 22]: 54.5 ± 4.2%
CYP 2E1 inhibition ratio [3, 17]: 40.9 ± 2.8%
CYP 2E1 inhibition ratio [3, 18]: 51.0 ± 2.7%
CYP 2E1 inhibition ratio [3, 19]: 60.6 ± 3.3%
improvement of APAP liver damage (AST, ALT, GSP and Total HAI-score, in words) [2]: significant decrease
ALT [2, 16]: 79 ± 34 IU/L
AST [2, 16]: 201 ± 30 IU/L

Compound: O=C1NS(=O)(=O)c2ccccc21 [Saccharin]
CYP 2E1 inhibition ratio [4, 13]: 29.4 ± 2.7%
CYP 2E1 inhibition ratio [4, 14]: 51.2 ± 0.9%
CYP 2E1 inhibition ratio [4, 15]: 78.5 ± 2.1%
CYP 2E1 inhibition ratio [3, 7]: 35.3 ± 2.0%
CYP 2E1 inhibition ratio [3, 8]: 59.6 ± 3.3%
CYP 2E1 inhibition ratio [3, 9]: 67.4 ± 3.9%

Compound: O=C([O-])c1ccccc1.[Na+] [Sodium benzoate]
CYP 2E1 inhibition ratio [3, 7]: 7.1 ± 2.0%
CYP 2E1 inhibition ratio [3, 8]: 7.8 ± 4.1%
CYP 2E1 inhibition ratio [3, 9]: 15.8 ± 0.9%

Compound: CCCCCCCCCCCCOS(=O)(=O)[O-].[Na+] [Sodium lauryl sulfate]
CYP 2E1 inhibition ratio [3, 7]: 4.6 ± 1.1%
CYP 2E1 inhibition ratio [3, 8]: 6.4 ± 0.9%
CYP 2E1 inhibition ratio [3, 9]: 4.8 ± 1.2%

Compound: Magnesium stearate
CYP 2E1 inhibition ratio [3, 7]: 2.0 ± 1.0%
CYP 2E1 inhibition ratio [3, 8]: 3.0 ± 0.7%
CYP 2E1 inhibition ratio [3, 9]: 5.0 ± 1.6%

The next lines start with results.

CYP 2E1 inhibition ratio [3, 7]: 3.9 ± 2.7%
CYP 2E1 inhibition ratio [3, 8]: 7.1 ± 2.3%
CYP 2E1 inhibition ratio [3, 9]: 14.5 ± 1.9%
Compound: CC1=CC(=O)NS(=O)(=O)O1 [Acesulfame potassium]

CYP 2E1 inhibition ratio [3, 10]: 8.2 ± 2.0%
CYP 2E1 inhibition ratio [3, 11]: 6.7 ± 1.0%
CYP 2E1 inhibition ratio [3, 12]: −10.3 ± 6.3%
Compound: OCc1ccccc1 [Benzyl alcohol]

CYP 2E1 inhibition ratio ([4]; human, microsomes, 30 min, 10 μM, pH 7.4): 7.3 ± 1.0%
CYP 2E1 inhibition ratio ([4]; human, microsomes, 30 min, 50 μM, pH 7.4): 49.8 ± 2.9%
CYP 2E1 inhibition ratio ([4]; human, microsomes, 30 min, 100 μM, pH 7.4): 89.6 ± 0.9%
CYP 2E1 inhibition ratio ([3]; rat liver microsomes, test concentration 10 μM): 8.6 ± 1.1%
CYP 2E1 inhibition ratio ([3]; rat liver microsomes, test concentration 50 μM): 50.4 ± 1.1%
CYP 2E1 inhibition ratio ([3]; rat liver microsomes, test concentration 100 μM): 89.2% and 89.2 ± 2.2%
Compound: CCN(CC)C(=S)S [DDTC, Diethyldithiocarbamic acid, reference compound]

CYP 2E1 inhibition ratio [3, 17]: 3.1 ± 0.2%
CYP 2E1 inhibition ratio [3, 18]: 3.1 ± 2.5%
CYP 2E1 inhibition ratio [3, 19]: 8.2 ± 2.0%
Compound: CCCCCCCCCCCCCCCCCCCCCC(=O)OCC(O)CO (stereo not drawn) [Glyceryl behenate]

CYP 2E1 inhibition ratio [4, 13]: 10.5 ± 0.4%
CYP 2E1 inhibition ratio [4, 14]: 20.8 ± 2.1%
CYP 2E1 inhibition ratio [4, 15]: 30.8 ± 0.3%
CYP 2E1 inhibition ratio [3, 7]: 7.2 ± 2.9%
CYP 2E1 inhibition ratio [3, 8]: 15.3 ± 7.9%
CYP 2E1 inhibition ratio [3, 9]: 36.4 ± 0.3%
Compound: CC1CCC(C(C)C)C(O)C1 (stereo not drawn) [Menthol]
GSP [5]: 289 ± 20 mg/L
Total HAI-score [1, 16]: 11 ± 1.2
liver tissue sections, hepatocyte morphology (in words) ([1]; single oral dose): more intact around the central vein and have a apparent nucleus with less vacuolization; also recorded: hepatocytes are relatively intact with visible nucleus and less vacuolization
improvement of APAP liver damage (AST, ALT, GSP and Total HAI-score, in words) [2]: significant decrease
ALT [2, 16]: 109 ± 23 IU/L
AST [2, 16]: 187 ± 21 IU/L

CYP 2E1 inhibition ratio [3, 17]: 4.6 ± 3.2%
CYP 2E1 inhibition ratio [3, 18]: −14.6 ± 4.1%
CYP 2E1 inhibition ratio [3, 19]: −21.5 ± 2.0%
Compound: COC(=O)c1ccc(O)cc1 [Methylparaben]

CYP 2E1 inhibition ratio [3, 17]: −4.1 ± 1.2%
CYP 2E1 inhibition ratio [3, 18]: −17.2 ± 2.4%
CYP 2E1 inhibition ratio [3, 19]: −27.3 ± 3.7%
Compound: CCCOC(=O)c1ccc(O)cc1 [Propylparaben]

CYP 2E1 inhibition ratio [4, 13]: 8.4 ± 1.6%
CYP 2E1 inhibition ratio [4, 14]: 10.9 ± 2.7%
CYP 2E1 inhibition ratio [4, 15]: 14.8 ± 0.1%
CYP 2E1 inhibition ratio [3, 7]: 12.1 ± 5.7%
CYP 2E1 inhibition ratio [3, 8]: 13.2 ± 4.4%
CYP 2E1 inhibition ratio [3, 9]: 19.0 ± 5.6%
Compound: C/C=C/C=C/C(=O)O [Sorbic acid]

CYP 2E1 inhibition ratio [3, 10]: 6.4 ± 0.5%
CYP 2E1 inhibition ratio [3, 11]: 5.6 ± 0.5%
CYP 2E1 inhibition ratio [3, 12]: 16.1 ± 0.7%
Compound: OC[C@@H](O)[C@@H](O)[C@H](O)[C@@H](O)CO [Sorbitol]

CYP 2E1 inhibition ratio [4, 20]: 37.1 ± 2.8%
CYP 2E1 inhibition ratio [4, 21]: 45.8 ± 4.0%
CYP 2E1 inhibition ratio [4, 22]: 55.8 ± 2.0%
CYP 2E1 inhibition ratio [3, 17]: 41.1 ± 2.7%
CYP 2E1 inhibition ratio [3, 18]: 46.8 ± 0.8%
CYP 2E1 inhibition ratio [3, 19]: 54.0 ± 4.2%
Compound: OC[C@H]1O[C@H](O[C@]2(CCl)O[C@H](CCl)[C@@H](O)[C@@H]2O)[C@H](O)[C@@H](O)[C@H]1Cl [Sucralose]
GSP [5]: 218 ± 31 mg/L
Total HAI-score [1, 16]: 0.6 ± 0.4
liver tissue sections, hepatocyte morphology (in words) ([1]; single oral dose): most similar to the liver tissue sections of normal rats; also recorded: hepatocytes are relatively intact with visible nucleus and less vacuolization
improvement of APAP liver damage (AST, ALT, GSP and Total HAI-score, in words) [2]: significant decrease
ALT [2, 16]: 83 ± 23 IU/L
AST [2, 16]: 199 ± 24 IU/L
